# Laboratory results as given in patent US10829473B2, “Modulators of the cystic fibrosis transmembrane conductance regulator protein and methods of use” (AbbVie Overseas S.Á.R.L., priority 2017, dated 2020).
# Where two headings read alike, the source gives them in different places.
# Target: T1, F508delCFTR (Homo sapiens, UniProt P13569, DEL508-508)
# T1 construct: expressed in transfected cells; host or cells: CFBE41o- human lung derived epithelial cells (CFBE41o-F508delCFTR-HRP), doxycycline-inducible
# T1 sequence (P13569 with tags, fused parts or gaps DEL508-508): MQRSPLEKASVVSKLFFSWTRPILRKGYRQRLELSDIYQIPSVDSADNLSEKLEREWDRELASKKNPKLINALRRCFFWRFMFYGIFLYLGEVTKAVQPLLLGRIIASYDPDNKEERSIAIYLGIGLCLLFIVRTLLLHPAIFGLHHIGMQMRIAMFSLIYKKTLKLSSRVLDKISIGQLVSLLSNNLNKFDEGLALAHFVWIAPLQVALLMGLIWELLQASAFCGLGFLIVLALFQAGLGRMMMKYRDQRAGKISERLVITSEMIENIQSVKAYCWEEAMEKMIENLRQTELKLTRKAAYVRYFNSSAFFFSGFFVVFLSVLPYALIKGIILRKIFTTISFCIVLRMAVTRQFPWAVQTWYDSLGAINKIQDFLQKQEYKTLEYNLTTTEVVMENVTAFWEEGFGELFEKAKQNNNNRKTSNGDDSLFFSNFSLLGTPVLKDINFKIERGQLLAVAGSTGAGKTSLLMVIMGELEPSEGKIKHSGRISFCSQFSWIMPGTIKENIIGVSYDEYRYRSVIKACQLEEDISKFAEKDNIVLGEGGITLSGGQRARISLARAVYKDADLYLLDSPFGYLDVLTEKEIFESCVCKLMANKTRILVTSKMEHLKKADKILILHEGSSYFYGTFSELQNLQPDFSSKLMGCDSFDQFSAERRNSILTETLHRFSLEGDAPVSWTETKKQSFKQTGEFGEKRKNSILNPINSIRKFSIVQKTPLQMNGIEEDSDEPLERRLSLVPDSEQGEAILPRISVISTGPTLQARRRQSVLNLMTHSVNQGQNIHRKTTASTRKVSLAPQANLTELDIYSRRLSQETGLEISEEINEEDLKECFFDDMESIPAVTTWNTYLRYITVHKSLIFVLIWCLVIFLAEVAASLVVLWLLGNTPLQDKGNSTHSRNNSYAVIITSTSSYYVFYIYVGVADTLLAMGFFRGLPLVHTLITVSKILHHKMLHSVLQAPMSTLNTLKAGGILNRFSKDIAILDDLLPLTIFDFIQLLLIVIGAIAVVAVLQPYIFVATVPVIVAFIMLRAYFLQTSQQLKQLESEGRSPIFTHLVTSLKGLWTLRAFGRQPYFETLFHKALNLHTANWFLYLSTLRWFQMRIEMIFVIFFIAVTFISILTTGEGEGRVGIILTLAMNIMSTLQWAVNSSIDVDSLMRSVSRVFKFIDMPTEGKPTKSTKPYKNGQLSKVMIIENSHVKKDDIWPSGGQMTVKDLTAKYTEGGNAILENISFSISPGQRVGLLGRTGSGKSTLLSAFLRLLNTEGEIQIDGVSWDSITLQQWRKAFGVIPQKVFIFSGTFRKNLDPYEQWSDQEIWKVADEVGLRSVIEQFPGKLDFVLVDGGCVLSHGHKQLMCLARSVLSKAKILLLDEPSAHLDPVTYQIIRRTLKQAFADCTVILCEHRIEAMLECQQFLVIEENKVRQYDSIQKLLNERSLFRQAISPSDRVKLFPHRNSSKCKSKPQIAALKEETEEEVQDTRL
# Assay: Cell Surface Expression-Horse Radish Peroxidase (CSE-HRP) Assay;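 on EC50 (with co-corrector): co-corrector chromenyl benzoic acid corrector at 2 or 3 µM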;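 on Maximum % activity (without co-corrector): % of on-plate positive control chromenyl benzoic acid corrector at 2 or 3 µM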
# Assay type: cell-based
# Conditions: for Maximum % activity (with co-corrector) / Emax: maximum at any tested concentration; for Emax: read-out: Maximum % activity (without co-corrector)
# Procedure, shortened: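 Corrector compounds were given as 8-point 3-fold series from 20 or 30 μM, with or without a 2 μM co-corrector, for 18-24 h at 33 °C. Surface HRP was read by luminol luminescence as % of positive control; variable-Hill-slope sigmoidal fitting gave EC50 from triplicate plates.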
# [1] = test compound with co-corrector
# [2] = test compound with co-corrector, read-out: EC50 (with co-corrector)
# [3] = test compound without co-corrector
# [4] = test compound without co-corrector, read-out: EC50 (without co-corrector)
Compound,Maximum % activity (with co-corrector) [1],EC50 [2],Emax [3],EC50 [4]
"CC(C)Oc1ncc(N(C)C)cc1C1(C(=O)NS(=O)(=O)c2cccc3[nH]ccc23)CC1 [Example GI-73, 1-{5-(dimethylamino)-2-[(propan-2-yl)oxy]pyridin-3-yl}-N-(1H-indole-4-sulfonyl)cyclopropane-1-carboxamide]",+++ (≥350),< 3 µM,> 150%,3 to 10 µM
"COc1cnc(OC(C)C)c(C2(C(=O)NS(=O)(=O)c3cccc4ncccc34)CC2)c1 [Example GI-74, 1-{5-methoxy-2-[(propan-2-yl)oxy]pyridin-3-yl}-N-(quinoline-5-sulfonyl)cyclopropane-1-carboxamide]",+++ (≥350),< 3 µM,> 150%,3 to 10 µM
"COc1cnc(OC(C)C)c(C2(C(=O)NS(=O)(=O)c3cccc4[nH]ccc34)CC2)c1 [Example GI-75, N-(1H-indole-4-sulfonyl)-1-{5-methoxy-2-[(propan-2-yl)oxy]pyridin-3-yl}cyclopropane-1-carboxamide]",+++ (≥350),< 3 µM,> 150%,3 to 10 µM
"COc1cnc(OC(C)C)c(C2(C(=O)NS(=O)(=O)c3cccc4nc(C)ccc34)CC2)c1 [Example GI-76, 1-{5-methoxy-2-[(propan-2-yl)oxy]pyridin-3-yl}-N-(2-methylquinoline-5-sulfonyl)cyclopropane-1-carboxamide]",+++ (≥350),< 3 µM,> 150%,< 3 µM
"COc1cnc(OCC(C)C)c(C2(C(=O)NS(=O)(=O)c3cccc4ncccc34)CC2)c1 [Example GI-77, 1-[5-methoxy-2-(2-methylpropoxy)pyridin-3-yl]-N-(quinoline-5-sulfonyl)cyclopropane-1-carboxamide]",+++ (≥350),< 3 µM,> 150%,< 3 µM
"COc1cnc(OCC(C)C)c(C2(C(=O)NS(=O)(=O)c3cccc4[nH]ccc34)CC2)c1 [Example GI-78, N-(1H-indole-4-sulfonyl)-1-[5-methoxy-2-(2-methylpropoxy)pyridin-3-yl]cyclopropane-1-carboxamide]",+++ (≥350),< 3 µM,> 150%,< 3 µM
"COc1cnc(OCC(C)C)c(C2(C(=O)NS(=O)(=O)c3cccc4nc(C)ccc34)CC2)c1 [Example GI-79, 1-[5-methoxy-2-(2-methylpropoxy)pyridin-3-yl]-N-(2-methylquinoline-5-sulfonyl)cyclopropane-1-carboxamide]",+++ (≥350),< 3 µM,> 150%,< 3 µM
"Cc1ccc(C2(C(=O)NS(=O)(=O)c3cccc4ncccc34)CC2)c(OC(C)C)n1 [Example GI-80, 1-{6-methyl-2-[(propan-2-yl)oxy]pyridin-3-yl}-N-(quinoline-5-sulfonyl)cyclopropane-1-carboxamide]",+++ (≥350),< 3 µM,> 150%,< 3 µM
"Cc1ccc(C2(C(=O)NS(=O)(=O)c3cccc4nc(C)ccc34)CC2)c(OC(C)C)n1 [Example GI-81, 1-{6-methyl-2-[(propan-2-yl)oxy]pyridin-3-yl}-N-(2-methylquinoline-5-sulfonyl)cyclopropane-1-carboxamide]",+++ (≥350),< 3 µM,> 150%,< 3 µM
"Cc1ccc(C2(C(=O)NS(=O)(=O)c3cccc4[nH]ccc34)CC2)c(OC(C)C)n1 [Example GI-82, N-(1H-indole-4-sulfonyl)-1-{6-methyl-2-[(propan-2-yl)oxy]pyridin-3-yl}cyclopropane-1-carboxamide]",+++ (≥350),< 3 µM,> 150%,< 3 µM
"CC(C)Oc1ncc(N2CCC2)cc1C1(C(=O)NS(=O)(=O)c2cccc3ncccc23)CC1 [Example GI-83, 1-{5-(azetidin-1-yl)-2-[(propan-2-yl)oxy]pyridin-3-yl}-N-(quinoline-5-sulfonyl)cyclopropane-1-carboxamide]",+++ (≥350),< 3 µM,> 150%,3 to 10 µM
"Cc1ccc2c(S(=O)(=O)NC(=O)C3(c4cc(N5CCC5)cnc4OC(C)C)CC3)cccc2n1 [Example GI-84, 1-{5-(azetidin-1-yl)-2-[(propan-2-yl)oxy]pyridin-3-yl}-N-(2-methylquinoline-5-sulfonyl)cyclopropane-1-carboxamide]",+++ (≥350),< 3 µM,> 150%,3 to 10 µM
"CC(C)Oc1ncc(N2CCC2)cc1C1(C(=O)NS(=O)(=O)c2cccc3[nH]ccc23)CC1 [Example GI-85, 1-{5-(azetidin-1-yl)-2-[(propan-2-yl)oxy]pyridin-3-yl}-N-(1H-indole-4-sulfonyl)cyclopropane-1-carboxamide]",+++ (≥350),< 3 µM,> 150%,3 to 10 µM
"CC(C)COc1ccc(OC(C)C)c(C2(C(=O)NS(=O)(=O)c3cccc4ncccc34)CC2)n1 [Example GI-86, 1-{6-(2-methylpropoxy)-3-[(propan-2-yl)oxy]pyridin-2-yl}-N-(quinoline-5-sulfonyl)cyclopropane-1-carboxamide]",+++ (≥350),< 3 µM,> 150%,< 3 µM
"COc1cnc(OCC2CC2)c(C2(C(=O)NS(=O)(=O)c3cccc4ncccc34)CC2)c1 [Example GI-87, 1-[2-(cyclopropylmethoxy)-5-methoxypyridin-3-yl]-N-(quinoline-5-sulfonyl)cyclopropane-1-carboxamide]",+++ (≥350),< 3 µM,> 150%,3 to 10 µM
"COc1cnc(OCC2CC2)c(C2(C(=O)NS(=O)(=O)c3cccc4[nH]ccc34)CC2)c1 [Example GI-88, 1-[2-(cyclopropylmethoxy)-5-methoxypyridin-3-yl]-N-(1H-indole-4-sulfonyl)cyclopropane-1-carboxamide]",+++ (≥350),< 3 µM,> 150%,< 3 µM
"CC(C)COc1ccc(OC(C)C)c(C2(C(=O)NS(=O)(=O)c3cccc4[nH]ccc34)CC2)n1 [Example GI-89, N-(1H-indole-4-sulfonyl)-1-{6-(2-methylpropoxy)-3-[(propan-2-yl)oxy]pyridin-2-yl}cyclopropane-1-carboxamide]",+++ (≥350),< 3 µM,> 150%,< 3 µM
"Cc1ccc2c(S(=O)(=O)NC(=O)C3(c4nc(OCC(C)C)ccc4OC(C)C)CC3)cccc2n1 [Example GI-90, 1-{6-(2-methylpropoxy)-3-[(propan-2-yl)oxy]pyridin-2-yl}-N-(2-methylquinoline-5-sulfonyl)cyclopropane-1-carboxamide]",+++ (≥350),< 3 µM,> 150%,< 3 µM
"COc1cc(C2(C(=O)NS(=O)(=O)c3cccc4ncccc34)CC2)c(OCC2CC2)cn1 [Example GI-91, 1-[5-(cyclopropylmethoxy)-2-methoxypyridin-4-yl]-N-(quinoline-5-sulfonyl)cyclopropane-1-carboxamide]",+++ (≥350),< 3 µM,> 150%,3 to 10 µM
"COc1cnc(OCC2CC2)c(C2(C(=O)NS(=O)(=O)c3cccc4nc(C)ccc34)CC2)c1 [Example GI-92, 1-[2-(cyclopropylmethoxy)-5-methoxypyridin-3-yl]-N-(2-methylquinoline-5-sulfonyl)cyclopropane-1-carboxamide]",+++ (≥350),< 3 µM,> 150%,< 3 µM
"COCCOc1ncc(C2CCC2)cc1C1(C(=O)NS(=O)(=O)c2cccc3nc(C)ccc23)CC1 [Example GI-94, 1-[5-cyclobutyl-2-(2-methoxyethoxy)pyridin-3-yl]-N-(2-methylquinoline-5-sulfonyl)cyclopropane-1-carboxamide]",+++ (≥350),< 3 µM,> 150%,< 3 µM
"COc1cc(C2(C(=O)NS(=O)(=O)c3cccc4[nH]ccc34)CC2)c(OCC2CC2)cn1 [Example GI-95, 1-[5-(cyclopropylmethoxy)-2-methoxypyridin-4-yl]-N-(1H-indole-4-sulfonyl)cyclopropane-1-carboxamide]",+++ (≥350),< 3 µM,> 150%,< 3 µM
"Cc1cnc(OCC2CC2)c(C2(C(=O)NS(=O)(=O)c3cccc4ncccc34)CC2)c1 [Example GI-96, 1-[2-(cyclopropylmethoxy)-5-methylpyridin-3-yl]-N-(quinoline-5-sulfonyl)cyclopropane-1-carboxamide]",+++ (≥350),< 3 µM,> 150%,3 to 10 µM
"Cc1cnc(OCC2CC2)c(C2(C(=O)NS(=O)(=O)c3cccc4[nH]ccc34)CC2)c1 [Example GI-97, 1-[2-(cyclopropylmethoxy)-5-methylpyridin-3-yl]-N-(1H-indole-4-sulfonyl)cyclopropane-1-carboxamide]",+++ (≥350),< 3 µM,> 150%,< 3 µM
"O=C(NS(=O)(=O)c1cccc2[nH]ccc12)C1(c2cc(C3CCC3)cnc2OCC2CC2)CC1 [Example GI-98, 1-[5-cyclobutyl-2-(cyclopropylmethoxy)pyridin-3-yl]-N-(1H-indole-4-sulfonyl)cyclopropane-1-carboxamide]",+++ (≥350),< 3 µM,> 150%,< 3 µM
